Experiment: Human HepG2 cell viability assay in 384 well format
Format: toxicity, cell-based
Set-up: dose 125 nL, time 70.5 hour; cytotoxicity at 70.5 h: concentration not given beside the values
Conditions: HepG2 cells, read-out: Inhibition

Structure (SMILES) | cytotoxicity at 70.5 h [%]
Cc1noc(C)c1CN1CCC(c2nc3cc(Cl)ccc3o2)CC1 | -14.6
CS(=O)(=O)NCCC1CCCCN1C(=O)NCCc1ccccc1 (stereo not given) | 17.9
CC(CNC(=O)c1cc(Cl)ccc1I)N1CCCC1 (stereo not given) | -17.1
CCOc1cccc(C(C)NC(=O)N2CCC3(CC2)OCCO3)c1 (stereo not given) | -13.2
COc1cccc(C(=O)NS(=O)(=O)c2cncc(Br)c2)c1OC | -12.4
CCC(O)CN1CCN(C(=O)CN(C)c2ccc(Cl)cn2)CC1 (stereo not given) | -5.06
Cc1nnc(C(C)NCC2(c3ccc(Cl)cc3)CCOCC2)o1 (stereo not given) | -18.1
Cc1cc(C)c2c(OCC(=O)NCC(O)C(F)(F)F)nn(C)c2n1 (stereo not given) | -15.2
Cc1noc(C)c1CN(C)C(=O)Nc1cnn(CC2CCCO2)c1 (stereo not given) | -16.8
CCc1cnc(CN(C)C(=O)Nc2cnn(CC3CCCO3)c2)s1 (stereo not given) | -4.76
CCS(=O)(=O)CCSc1cccc(C#N)c1 | -23.7
CCCS(=O)(=O)CCSc1cccc(C#N)c1 | -11.2
Cn1cc(Br)c(=O)c(NS(=O)(=O)c2ccc(Cl)cc2)c1 | -18.4
CC(CNC(=O)c1ccc(Cl)cc1F)N1CCCC1 (stereo not given) | -16.4
CC(O)CN1CCN(C(=O)CN(C)c2ccc(C#N)cn2)CC1 (stereo not given) | 10.3
Cc1cccc(C2(CNC(C)c3nnc(C)o3)CCCC2)c1 (stereo not given) | -6.44
Cc1cc(CN2CCN(C(=O)CCc3ccco3)CC2)on1 | -9.48
CC(=O)N1CCCN(C(=O)CN(C)c2ccc(Cl)cn2)CC1 | 10.7
Cn1ccnc1CNc1c(F)cccc1-n1cccn1 | -7.82
COc1ccc(CCNC(=O)Nc2cc(C)nn2C)cc1 | -2.92
O=C(CCc1ccccc1Br)NCC(=O)NCc1ccccc1 | -7.06
COc1ccc(CN(C)C(=O)NC(C)c2nncn2C)cc1F (stereo not given) | -6.21
CCN(CC)c1ccc(NC(=O)NC(C)Cn2cccn2)cn1 (stereo not given) | -6.74
O=C(c1ccn(-c2cccc(F)c2)n1)N1CCN(CC2CC2)CC1 | -7.87

Structure (SMILES) | cytotoxicity at 70.5 h [%]
Cc1cc(NC(=O)NCC(c2ccsc2)N(C)C)n(C)n1 (stereo not given) | -10.2
CC(NC(=O)N(C)Cc1cnn(C)c1)c1nncn1C (stereo not given) | -2.09
Cc1nnc2n1CCN(Cc1csc(-c3cnn(C)c3)n1)C2 | -3.97
CCc1nnc2n1CCN(Cc1csc(-c3ncccn3)n1)C2 | -9.92
COc1ccc(CNC(=O)Nc2ccc(CN3CCOC3=O)cc2)cc1 | -0.36
COCCNC(=O)Nc1ccc(CN2CCOC2=O)cc1 | -7
Cn1nc2c(cc1=O)CN(CC(=O)Nc1cc(C(C)(C)C)no1)CC2 | 13.4
CCCn1nc2c(cc1=O)CN(CC(=O)Nc1cc(C)no1)CC2 | -7.27
Cc1ccc(S(=O)(=O)NC2CCC(=O)NC2)cc1Br (stereo not given) | -4.2
Cn1cc(-c2csc(N3CCN(c4nccs4)CC3)n2)cn1 | -0.763
O=C(CSc1ccc2c(c1)OCCO2)NS(=O)(=O)c1cc(F)ccc1F | -7.36
COCCCNC(=O)CN(C)Cc1ccc(F)cc1Cl | 9.16
CC(NC(=O)N(C)Cc1cccc(OC(F)F)c1)c1nncn1C (stereo not given) | -5.84
Cc1nc(C2CCCN(C(=O)c3sc(C)nc3C)C2)no1 (stereo not given) | 37.2
Cc1nc(C2CCCN(C(=O)c3cnc(C)s3)C2)no1 (stereo not given) | 10.2
O=C(CN1CCc2ccccc21)NCc1ccc(Cl)cc1 | 3.34
COc1ccc(NC(C)C(=O)N2CCN(c3ccccc3)CC2)cn1 (stereo not given) | -3.71
CCCC(=O)N1CCC(C(=O)NCCN2CCC(C)CC2)CC1 | -1.92
CCCN(C)C(=O)c1cc(S(=O)(=O)NCC)ccc1C | -1.03
CC1CCN(CCNC(=O)C2CCN(C(=O)C3CC3)CC2)CC1 | -3.28
CS(=O)(=O)Nc1ccc(CNC(=O)CN2CCc3ccccc32)cc1 | 7.44
CN(C)CCN(Cc1ccc(C(F)(F)F)cc1)C(=O)c1cc[nH]n1 | 16.2
CN(C)CCN(Cc1ccc(Cl)cc1)C(=O)c1ccncc1 | -1.83
CCCN1CCN(S(=O)(=O)c2ncn(C)c2Cl)CC1 | -4.77

Structure (SMILES) | cytotoxicity at 70.5 h [%]
Cc1ccc(NC(=O)NC(C)(C)c2noc(C)n2)cc1 | 7.68
COCc1ccc(CNC(=O)CN2CCc3ccccc32)cc1 | 1.24
NS(=O)(=O)N1CCc2ccc(NC(=O)CCc3ccncc3)cc21 | 22.2
NS(=O)(=O)N1CCc2ccc(NC(=O)CC(F)(F)F)cc21 | -1.59
Cc1nc(C(C)(C)NC(=O)Nc2ccncc2)no1 | -0.296
CC(C#N)CSc1ccccc1NCC(=O)NC1CCCCC1 (stereo not given) | -1.2
COCCN(Cc1ccc(F)cc1Cl)C(=O)c1cc(C)n[nH]1 | -0.839
Cc1cc(NC(C)C(=O)N2CCN(c3ncccn3)CC2)ccc1F (stereo not given) | 9.5
Cc1ccc(OCC(=O)Nc2ncccc2OC(F)F)cc1 | -1.62
CC(C)NC(=O)CCNC(=O)c1cc(Br)cn1C(C)C | 1.21
COc1ccccc1-c1noc(CNc2ccc(F)cc2OCCO)n1 | 9.78
N#Cc1cccc(OCC(=O)N(Cc2ccsc2)C2CC2)c1 | -12
CCOc1ccc(OCC)c(NCc2cc(C)on2)c1 | 8.35
Cc1nnc2n1CC(CNc1ncnc3ccccc13)CC2 (stereo not given) | -11.6
CCc1[nH]n(C)c(=N)c1-c1ccc2c(c1)OCO2 | -6.78
CCNC(=O)N1CCC(NC(=O)NCCCc2cccc(F)c2)C1 (stereo not given) | -4.92
Cc1ccc2cc(C(=O)N3CCS(=O)(=O)CC3)[nH]c2c1 | -12.3
OCc1cc2ccccc2nc1NCC1CC1 | -4.89
CCOc1ccc(C#N)cc1NCc1cc(C)on1 | 27.9
CCNC(=O)N1CCC(NC(=O)NCCc2cccc(C)c2)C1 (stereo not given) | 4.49
CCc1nc(Cn2c(=O)n(CC)c3ccccc32)no1 | -7.55
OCc1cc2ccccc2nc1NC1CC=CC1 | -5.4
Cc1nc(CN(CCS(C)(=O)=O)C(C)C)cs1 | -8.28
CCOCCN1CCN(Cc2nnc(-c3occc3C)o2)CC1CC (stereo not given) | -5.31

Structure (SMILES) | cytotoxicity at 70.5 h [%]
O=C(CN1CCOC(Cn2cccn2)C1)NC(C1CC1)C1CC1 (stereo not given) | -6.99
FC(F)(F)c1cccc(N2CCC(NCc3cccnc3)CC2)c1 | 26.9
CCC(SC)C(=O)N1CCC(n2cccn2)CC1 (stereo not given) | -6.08
CSC(C)CC(=O)N1CCC(n2ccnn2)CC1 (stereo not given) | -8.7
COCc1ccccc1CNC(=O)CN1CCC2(CCOC2)C1 (stereo not given) | 25
c1cnn(-c2ccc(CCNC3CCN(C4CC4)C3)cc2)c1 (stereo not given) | 0.821
CC(=O)N1CCCN(Cc2cc(F)cc(Br)c2)CC1 | 21
N#Cc1ccc(OCCn2cccn2)cc1 | -16.4
CC(C)(C)CC(=O)NCC(=O)Nc1ccn(Cc2cccnc2)n1 | 3.55
CN1CC(C(=O)NC2(c3ccc(Cl)cc3)CCOCC2)CC1=O (stereo not given) | 2.23
CCCOc1ccc(CNCCn2cccn2)cc1 | -12.1
NS(=O)(=O)CC1CCCN1CCOc1ccccc1F (stereo not given) | -12.4
Cc1noc(C)c1CSC1CCCN(c2cnn(C)c2)C1=O (stereo not given) | 5.52
NC(=O)N1CCCN(Cc2cc(F)cc(Br)c2)CC1 | -8.26
COc1ccc(C(C)Nc2cnn(C)c(=O)c2Cl)cc1OC (stereo not given) | -3.5
CNC(=O)CNC(=O)Nc1cc(-c2ccccc2)ns1 | 29.7
CCc1n[nH]c(=O)c(C(=O)N2CCSC(C)(C)C2)c1CC | -10.1
CCc1n[nH]c(=O)c(C(=O)N2CCOC3(CCCC3)C2)c1CC | -2.62
CCC(NC(=O)NCc1cccc(N(C)C)n1)c1nccs1 (stereo not given) | 32.1
O=C(NCC1CCN(c2ccncc2)CC1)C(O)c1ccccc1 (stereo not given) | 7.47
COC(C)(C)CNC(=O)c1cn(-c2cccc(Cl)c2F)nn1 | 4.1
FC(F)CN1CCC(NCCc2ccc(-n3cccn3)cc2)CC1 | -5.54
CCC(=O)N1CCCN(Cc2cc(F)cc(Br)c2)CC1 | 16.2
CN(CC(=O)NCC(F)(F)F)Cc1nc2c(s1)CCCC2 | -9.23

Structure (SMILES) | cytotoxicity at 70.5 h [%]
CN(CC(=O)NCC1CCCO1)Cc1nc2c(s1)CCCC2 (stereo not given) | 25.9
CN(Cc1ccc2c(c1)OCCO2)Cc1nnnn1-c1ccccc1 | -17.2
COc1ccc(C2(NC(=O)C3CC(=O)N(C)C3)CCCC2)cc1 (stereo not given) | 20.4
CC(C)n1nc2c(cc1=O)CN(CCOc1cccc(C#N)c1)CC2 | -8.86
CC(C)n1nc2c(cc1=O)CN(CCOc1ccccc1C#N)CC2 | 6.74
COCCCNC(=O)CN1CCOC(c2ccccc2)C1 (stereo not given) | 15.8
COCCN1CCN(CC(=O)N(C)Cc2ccccc2)CC1C (stereo not given) | 53.1
CCN(Cc1cccc(NC(=O)COC)c1)C(C)=O | 27.5
O=C(NCC1CCOC1)c1csc(Cc2ccccc2)n1 (stereo not given) | 19.4
Cc1cccc(C)c1OCCNC(=O)CNC(=O)C1CCCC1 | 23.5
COc1ccccc1-c1cc(NC(=O)CCC2CCCO2)[nH]n1 (stereo not given) | 36.9
COc1ccccc1-c1cc(NC(=O)CCS(=O)(=O)C2CCCC2)[nH]n1 | 25.9
COc1ccccc1-c1cc(NC(=O)COCC2CC2)[nH]n1 | -4.9
O=C(Cc1csc(N2CCNC2=O)n1)NCC1(c2ccccc2)CC1 | 24.5
O=C(Cc1csc(N2CCNC2=O)n1)NC(c1ccccc1)C1CC1 (stereo not given) | -3.72
O=C(Cc1csc(N2CCNC2=O)n1)NC1(c2ccccc2)CCC1 | -8.91
CN(CCCc1cc(-c2cccc(F)c2)n[nH]1)C(=O)Cn1cncn1 | 22.1
C[C@@H]1CN(Cc2ccccc2)CCN1C(=O)NCc1nccs1 | 0.13
Cc1n[nH]cc1CNC1CCN(c2ccccc2)CC1 | 24.8
Cn1cc(CNC2CCC(O)CC2)c(-c2cc3ccccc3o2)n1 (stereo not given) | -6.96
Cc1n[nH]cc1CNC1CCN(c2ccc(F)cc2)CC1 | -8.94
COc1cccc(CNC(C)c2ccc(-n3ccnc3)cc2)c1OC (stereo not given) | -8.35
CC(C)(CNCc1ccc(OCc2cscn2)cc1)C(N)=O | 2.2
Cn1[nH]c(Br)c2/c(=N\CCN)ncnc1-2 | -7.01

— ChEMBL document CHEMBL3507680, “University of Dundee, Gates Library screen for HepG2 cell viability”
